Assay results taken from US4443436A, “C-20-Modified macrolide derivatives of the macrolide antibiotics tylosin, desmycosin, macrocin, and lactenocin” (Eli Lilly and Company, priority 1982, dated 1984).
Values after ≈ are worked out from the molar mass of the structure shown.

Key:
[1] = tested on: Haemophilus influenzae Holt; test: MIC, standard agar-dilution assay, Haemophilus influenzae Holt; assay type: cell-based; settings: Haemophilus influenzae Holt; ampicillin-sensitive strain; agar dilution
Mycoplasma gallisepticum [2] = test: MIC, broth-dilution microtiter test, Mycoplasma gallisepticum; assay type: cell-based; settings: Mycoplasma gallisepticum; broth-dilution microtiter
Source text: (§1) The MIC's in Table X were obtained using conventional broth-dilution microtiter tests.

[3] = tested on: Haemophilus influenzae R252; test: MIC, standard agar-dilution assay, Haemophilus influenzae R252; assay type: cell-based; settings: Haemophilus influenzae R252; ampicillin-resistant strain; agar dilution
Mycoplasma gallisepticum [4] = test: Antimycoplasmal activity in chicks infected with Mycoplasma gallisepticum; assay type: in vivo, two- to three-day-old chicks; settings: gavage five times, equivalent to 0.5 g/gal
Description: In these tests infections were induced in chicks by injecting 0.2 ml of a broth culture of M. gallisepticum into the abdominal air sac of two- to three-day-old chicks. The compounds were administered by gavage five times at a dose equivalent to 0.5 g/gal (on the day of challenge once prior to and once following the challenge, two times on the next day and once on the third day). Twenty-one days post-infection, the chicks were weighed, a blood sample was taken, and the chicks were sacrificed. The presence or absence of air-sac lesions was recorded.

[5] = tested on: Streptococcus pneumoniae Park I; test: microbe, parasite or virus in culture; assay type: cell-based; settings: Streptococcus pneumoniae Park I; agar dilution
[6] = tested on: Streptococcus Group D X66; test: MIC, standard agar-dilution assay, Streptococcus Group D X66; assay type: cell-based; settings: Streptococcus Group D X66; agar dilution
[7] = tested on: Pasteurella hemolytica 22C; test: MIC, broth-dilution microtiter test, Pasteurella hemolytica 22C; assay type: cell-based; settings: Pasteurella hemolytica 22C; broth-dilution microtiter
Source text: as §1

[8] = tested on: Pasteurella multocida 17E; test: MIC, broth-dilution microtiter test, Pasteurella multocida 17E; assay type: cell-based; settings: Pasteurella multocida 17E; bovine isolate; broth-dilution microtiter
Source text: as §1

[9] = tested on: Staphylococcus aureus V41; test: MIC, standard agar-dilution assay, Staphylococcus aureus V41; assay type: cell-based; settings: Staphylococcus aureus V41; penicillin-resistant strain; agar dilution
[10] = tested on: Staphylococcus aureus X1.1; test: MIC, standard agar-dilution assay, Staphylococcus aureus X1.1; assay type: cell-based; settings: Staphylococcus aureus X1.1; agar dilution
[11] = tested on: Staphylococcus epidermidis EPI1; test: MIC, standard agar-dilution assay, Staphylococcus epidermidis EPI1; assay type: cell-based; settings: Staphylococcus epidermidis EPI1; agar dilution
Streptococcus Group 9960 = test: MIC, standard agar-dilution assay, Streptococcus Group 9960; assay type: cell-based; settings: Streptococcus Group 9960; agar dilution
Mycoplasma synoviae = test: MIC, broth-dilution microtiter test, Mycoplasma synoviae; assay type: cell-based; settings: Mycoplasma synoviae; broth-dilution microtiter
Source text: as §1

[12] = tested on: Staphylococcus aureus X400; test: MIC, standard agar-dilution assay, Staphylococcus aureus X400; assay type: cell-based; settings: Staphylococcus aureus X400; methicillin-resistant strain; agar dilution
[13] = tested on: Streptococcus pyogenes C203; test: In vivo protection of mice experimentally infected with S. pyogenes C203; settings: mice, doses given 1 and 4 hours post-infection
Description: The C-20 modified derivatives of this invention have shown in vivo antimicrobial activity against experimentally-induced infections in laboratory animals. When two doses of test compound were administered to mice experimentally infected with S. pyogenes C203, the activity observed was measured as an ED50 value [effective dose in mg/kg to protect 50% of the test animals: see Warren Wick, et al., J. Bacteriol. 81, 233-235 (1961)].

Pasteurella multocida [14] = test: Subcutaneous treatment of Pasteurella multocida-infected chicks; assay type: in vivo, one-day-old chicks; settings: 30 mg/kg × 2, 1 and 4 hours post-challenge
Procedure, shortened: (§2)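 One-day-old chicks challenged subcutaneously with 0.1 ml of a 10^-4 dilution of a 20-hour tryptose broth culture of avian P. multocida. Compounds given by subcutaneous injection at 30 mg/kg 1 and 4 hours post-challenge, or by oral gavage 1 and 5 hours post-challenge.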

Pasteurella multocida [15] = test: Oral (gavage) treatment of Pasteurella multocida-infected chicks; assay type: in vivo, one-day-old chicks
Procedure, shortened: as §2

Mycoplasma hyorhinis = test: MIC, broth-dilution microtiter test, Mycoplasma hyorhinis; assay type: cell-based; settings: Mycoplasma hyorhinis; broth-dilution microtiter
Source text: as §1

[16] = tested on: Streptococcus pyogenes C203; test: MIC, standard agar-dilution assay, Streptococcus pyogenes C203; assay type: cell-based; settings: Streptococcus pyogenes C203; agar dilution
Streptococcus bovis 80 = test: MIC, broth-dilution microtiter test, Streptococcus bovis 80; assay type: cell-based; settings: Streptococcus bovis 80; broth-dilution microtiter
Source text: as §1

Staphylococcus aureus = test: MIC, broth-dilution microtiter test, Staphylococcus aureus; assay type: cell-based; settings: broth-dilution microtiter
Source text: as §1

[17] = tested on: Staphylococcus epidermidis EPI2; test: MIC, standard agar-dilution assay, Staphylococcus epidermidis EPI2; assay type: cell-based; settings: Staphylococcus epidermidis EPI2; agar dilution
Mycoplasma hyopneumoniae = test: MIC, broth-dilution microtiter test, Mycoplasma hyopneumoniae; assay type: cell-based; settings: Mycoplasma hyopneumoniae; broth-dilution microtiter
Source text: as §1

[18] = tested on: Staphylococcus aureus S13E; test: MIC, standard agar-dilution assay, Staphylococcus aureus S13E; assay type: cell-based; settings: Staphylococcus aureus S13E; agar dilution
[19] = Plasma level after oral administration to dogs; settings: female mongrel dogs; single 15 mg/kg oral dose
[20] = tested on: Pasteurella multocida 60A; test: MIC, broth-dilution microtiter test, Pasteurella multocida 60A; assay type: cell-based; settings: Pasteurella multocida 60A; avian isolate; broth-dilution microtiter
Source text: as §1

`CC[C@H]1OC(=O)C[C@@H](O)[C@H](C)[C@@H](O[C@@H]2O[C@H](C)[C@H](O)[C@H](N(C)C)[C@H]2O)[C@@H](CCOc2ccccc2)C[C@@H](C)C(=O)/C=C/C(C)=C/[C@@H]1COC1O[C@H](C)[C@@H](O)[C@@H](OC)[C@H]1OC` (stereo partly shown) [Compound 33, 20-DH-20-O-Phenyldesmycosin] gave an MIC [1] of 32 µg/mL (≈ 37.6 µM), an MIC (Mycoplasma gallisepticum [2]) of 0.39 µg/mL (≈ 0.459 µM) and an MIC [3] of 32 µg/mL (≈ 37.6 µM). For the same molecule, the “Number with Antibodies/Number Tested” value (Mycoplasma gallisepticum [4]; antibodies to M. gallisepticum, 21 days post-infection) was 10/10, the Mortality (Mycoplasma gallisepticum [4]) was 0/10 and the “Number with Air-Sac Lesions/Number Treated” value (Mycoplasma gallisepticum [4]; 21 days post-infection) was 2/10. For the same molecule, the MIC [5] was 2 µg/mL (≈ 2.35 µM), the MIC [6] was 8 µg/mL (≈ 9.41 µM) and the MIC [7] was 25 µg/mL (≈ 29.4 µM). For the same molecule, the MIC [8] was 12.5 µg/mL (≈ 14.7 µM), the MIC [9] was 0.25 µg/mL (≈ 0.294 µM) and the MIC [10] was 0.25 µg/mL (≈ 0.294 µM). The MIC [11] was 0.25 µg/mL (≈ 0.294 µM), the MIC (Streptococcus Group 9960) was 16 µg/mL (≈ 18.8 µM) and the MIC (Mycoplasma synoviae) was 1.56 µg/mL (≈ 1.84 µM). The MIC [12] was 0.25 µg/mL (≈ 0.294 µM), the “ED50, Oral” value ([13]; oral) was 9 mg/kg × 2 and the “ED50, Subcutaneous” value ([13]; subcutaneous) was 1.5 mg/kg × 2. For the same molecule, the “Number of Deaths/Number Treated” value (Pasteurella multocida [14]) was 10/10, the “Number of Deaths/Number tested” value (Pasteurella multocida [15]; 1.0 g/gal equivalent) was 9/9 and the “Number of Deaths/Number tested” value (Pasteurella multocida [15]; 2.0 g/gal equivalent) was 3/9. For the same molecule, the “Number of Deaths/Number tested” value (Pasteurella multocida [15]; 2.0 g/gal equivalent, 13/20 infected nonmedicated chicks died in this test) was 7/10, the MIC (Mycoplasma hyorhinis) was 25 µg/mL (≈ 29.4 µM) and the MIC [16] was 2 µg/mL (≈ 2.35 µM). For the same molecule, the MIC (Streptococcus bovis 80) was 6.25 µg/mL (≈ 7.35 µM), the MIC (Staphylococcus aureus) was 0.39 µg/mL (≈ 0.459 µM) and the MIC [17] was 0.12 µg/mL (≈ 0.141 µM). The MIC (Mycoplasma hyopneumoniae) was 25 µg/mL (≈ 29.4 µM), the MIC [18] was 0.25 µg/mL (≈ 0.294 µM) and the peak plasma level [19] was 2.1 µg/mL. The MIC [20] was 12.5 µg/mL (≈ 14.7 µM).
